Laboratory results from PubChem BioAssay (NCI).
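Compound exposure: 48 hours, 5 concentrations, 96-well plates. At the GI50, growth is halved. At the TGI there is no net growth.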

Columns and labels:
Assay in all cases: NCI tumour cell line growth inhibition, 48 h
HL-60(TB) leukemia = system: HL-60(TB) leukemia
SF-539 CNS = system: SF-539 CNS
NCI-H460 lung = system: NCI-H460 lung
CCRF-CEM leukemia = system: CCRF-CEM leukemia
SNB-19 CNS = system: SNB-19 CNS
MDA-MB-231 breast = system: MDA-MB-231 breast
MDA-MB-435 = system: MDA-MB-435
SK-OV-3 ovarian = system: SK-OV-3 ovarian
HS 578T breast = system: HS 578T breast
OVCAR-3 ovarian = system: OVCAR-3 ovarian
UACC-62 melanoma = system: UACC-62 melanoma
K-562 leukemia = system: K-562 leukemia
SR leukemia = system: SR leukemia
PC-3 prostate = system: PC-3 prostate
RPMI-8226 leukemia = system: RPMI-8226 leukemia
786-0 renal = system: 786-0 renal
A549 NSCLC = system: A549 NSCLC
SNB-75 CNS = system: SNB-75 CNS
HCT-116 colon = system: HCT-116 colon
NCI/ADR-RES ovarian = system: NCI/ADR-RES ovarian
OVCAR-5 ovarian = system: OVCAR-5 ovarian
MALME-3M melanoma = system: MALME-3M melanoma
SW-620 colon = system: SW-620 colon
SK-MEL-5 melanoma = system: SK-MEL-5 melanoma
MCF7 breast = system: MCF7 breast
CAKI-1 renal = system: CAKI-1 renal
HOP-62 NSCLC = system: HOP-62 NSCLC
SF-268 CNS = system: SF-268 CNS
COLO 205 colon = system: COLO 205 colon
OVCAR-4 ovarian = system: OVCAR-4 ovarian
IGROV1 ovarian = system: IGROV1 ovarian
T-47D breast = system: T-47D breast
UO-31 renal = system: UO-31 renal
NCI-H23 lung = system: NCI-H23 lung
HCT-15 colon = system: HCT-15 colon
UACC-257 melanoma = system: UACC-257 melanoma
KM12 colon = system: KM12 colon
A498 renal = system: A498 renal
NCI-H522 lung = system: NCI-H522 lung
SN12C renal = system: SN12C renal
U251 CNS = system: U251 CNS
M14 melanoma = system: M14 melanoma
BT-549 breast = system: BT-549 breast
NCI-H226 lung = system: NCI-H226 lung
ACHN renal = system: ACHN renal
TK-10 renal = system: TK-10 renal
OVCAR-8 ovarian = system: OVCAR-8 ovarian
DU-145 prostate = system: DU-145 prostate
EKVX NSCLC = system: EKVX NSCLC
SF-295 CNS = system: SF-295 CNS
MOLT-4 leukemia = system: MOLT-4 leukemia
HCC-2998 colon = system: HCC-2998 colon
HT29 colon = system: HT29 colon
SK-MEL-2 melanoma = system: SK-MEL-2 melanoma
LOX IMVI melanoma = system: LOX IMVI melanoma
SK-MEL-28 melanoma = system: SK-MEL-28 melanoma
HOP-92 NSCLC = system: HOP-92 NSCLC

CCCCN1C=CCN(CCCC)C1 was tested, and the GI50 (HL-60(TB) leukemia) was 21.2 µM, the TGI (HL-60(TB) leukemia) was 75.4 µM and the GI50 (SF-539 CNS) was > 100 µM. For the same compound, the TGI (SF-539 CNS) was > 100 µM, the GI50 (NCI-H460 lung) was 47.5 µM and the TGI (NCI-H460 lung) was > 100 µM. The GI50 (CCRF-CEM leukemia) was > 100 µM, the TGI (CCRF-CEM leukemia) was > 100 µM and the GI50 (SNB-19 CNS) was 46.4 µM. The TGI (SNB-19 CNS) was > 100 µM, the GI50 (MDA-MB-231 breast) was > 100 µM and the TGI (MDA-MB-231 breast) was > 100 µM. The GI50 (MDA-MB-435) was 33.8 µM, the TGI (MDA-MB-435) was > 100 µM and the GI50 (SK-OV-3 ovarian) was > 100 µM. For the same compound, the TGI (SK-OV-3 ovarian) was > 100 µM, the GI50 (HS 578T breast) was 63.4 µM and the TGI (HS 578T breast) was > 100 µM. For the same compound, the GI50 (OVCAR-3 ovarian) was 23.8 µM, the TGI (OVCAR-3 ovarian) was 57.2 µM and the GI50 (UACC-62 melanoma) was 48.1 µM. The TGI (UACC-62 melanoma) was > 100 µM, the GI50 (K-562 leukemia) was 32 µM and the TGI (K-562 leukemia) was > 100 µM. For the same compound, the GI50 (SR leukemia) was > 100 µM, the TGI (SR leukemia) was > 100 µM and the GI50 (PC-3 prostate) was 37.7 µM. For the same compound, the TGI (PC-3 prostate) was > 100 µM, the GI50 (RPMI-8226 leukemia) was 23.6 µM and the TGI (RPMI-8226 leukemia) was 93.6 µM. The GI50 (786-0 renal) was > 100 µM, the TGI (786-0 renal) was > 100 µM and the GI50 (A549 NSCLC) was > 100 µM. The TGI (A549 NSCLC) was > 100 µM, the GI50 (SNB-75 CNS) was > 100 µM and the TGI (SNB-75 CNS) was > 100 µM. The GI50 (HCT-116 colon) was 39 µM, the TGI (HCT-116 colon) was > 100 µM and the GI50 (NCI/ADR-RES ovarian) was > 100 µM. The TGI (NCI/ADR-RES ovarian) was > 100 µM, the GI50 (OVCAR-5 ovarian) was > 100 µM and the TGI (OVCAR-5 ovarian) was > 100 µM. It also gave a GI50 (MALME-3M melanoma) of 21.2 µM, a TGI (MALME-3M melanoma) of 57.3 µM and a GI50 (SW-620 colon) of 70.1 µM. For the same compound, the TGI (SW-620 colon) was > 100 µM, the GI50 (SK-MEL-5 melanoma) was 30.1 µM and the TGI (SK-MEL-5 melanoma) was > 100 µM. The GI50 (MCF7 breast) was 57 µM, the TGI (MCF7 breast) was > 100 µM and the GI50 (CAKI-1 renal) was > 100 µM. The TGI (CAKI-1 renal) was > 100 µM, the GI50 (HOP-62 NSCLC) was > 100 µM and the TGI (HOP-62 NSCLC) was > 100 µM. The GI50 (SF-268 CNS) was 53 µM, the TGI (SF-268 CNS) was > 100 µM and the GI50 (COLO 205 colon) was 28.9 µM. The TGI (COLO 205 colon) was > 100 µM, the GI50 (OVCAR-4 ovarian) was 58.8 µM and the TGI (OVCAR-4 ovarian) was > 100 µM. The GI50 (IGROV1 ovarian) was 66.4 µM, the TGI (IGROV1 ovarian) was > 100 µM and the GI50 (T-47D breast) was 27.3 µM. For the same compound, the TGI (T-47D breast) was > 100 µM, the GI50 (UO-31 renal) was > 100 µM and the TGI (UO-31 renal) was > 100 µM. The GI50 (NCI-H23 lung) was 63.8 µM, the TGI (NCI-H23 lung) was > 100 µM and the GI50 (HCT-15 colon) was > 100 µM. The TGI (HCT-15 colon) was > 100 µM, the GI50 (UACC-257 melanoma) was 22.8 µM and the TGI (UACC-257 melanoma) was 80.7 µM. The GI50 (KM12 colon) was 35.8 µM, the TGI (KM12 colon) was > 100 µM and the GI50 (A498 renal) was > 100 µM. The TGI (A498 renal) was > 100 µM, the GI50 (NCI-H522 lung) was 52.5 µM and the TGI (NCI-H522 lung) was > 100 µM. The GI50 (SN12C renal) was 71.7 µM, the TGI (SN12C renal) was > 100 µM and the GI50 (U251 CNS) was 32.2 µM. The TGI (U251 CNS) was > 100 µM, the GI50 (M14 melanoma) was 85.1 µM and the TGI (M14 melanoma) was > 100 µM. The GI50 (BT-549 breast) was > 100 µM, the TGI (BT-549 breast) was > 100 µM and the GI50 (NCI-H226 lung) was > 100 µM. For the same compound, the TGI (NCI-H226 lung) was > 100 µM, the GI50 (ACHN renal) was 89.7 µM and the TGI (ACHN renal) was > 100 µM. For the same compound, the GI50 (TK-10 renal) was > 100 µM, the TGI (TK-10 renal) was > 100 µM and the GI50 (OVCAR-8 ovarian) was 61.7 µM. The TGI (OVCAR-8 ovarian) was > 100 µM, the GI50 (DU-145 prostate) was > 100 µM and the TGI (DU-145 prostate) was > 100 µM. For the same compound, the GI50 (EKVX NSCLC) was 18.5 µM, the TGI (EKVX NSCLC) was > 100 µM and the GI50 (SF-295 CNS) was 49.8 µM. The TGI (SF-295 CNS) was > 100 µM, the GI50 (MOLT-4 leukemia) was 60.7 µM and the TGI (MOLT-4 leukemia) was > 100 µM. The GI50 (HCC-2998 colon) was 34 µM, the TGI (HCC-2998 colon) was > 100 µM and the GI50 (HT29 colon) was 61.4 µM. For the same compound, the TGI (HT29 colon) was > 100 µM, the GI50 (SK-MEL-2 melanoma) was 46.3 µM and the TGI (SK-MEL-2 melanoma) was > 100 µM. For the same compound, the GI50 (LOX IMVI melanoma) was 68.5 µM, the TGI (LOX IMVI melanoma) was > 100 µM and the GI50 (SK-MEL-28 melanoma) was 86.9 µM. The TGI (SK-MEL-28 melanoma) was > 100 µM.
With COc1ccc(P2(=S)OCCOP(=S)(c3ccc(OC)cc3)S2)cc1 (stereo unspecified) the TGI (HL-60(TB) leukemia) was > 23.3 µM, the TGI (SF-539 CNS) was 6.7 µM and the TGI (NCI-H460 lung) was > 32.2 µM. The TGI (HOP-92 NSCLC) was > 100 µM, the TGI (CCRF-CEM leukemia) was 25.1 µM and the TGI (SNB-19 CNS) was > 100 µM. For the same compound, the TGI (MDA-MB-231 breast) was > 100 µM, the TGI (MDA-MB-435) was 40.7 µM and the TGI (HS 578T breast) was > 100 µM. For the same compound, the TGI (OVCAR-3 ovarian) was 6.11 µM, the TGI (UACC-62 melanoma) was > 100 µM and the TGI (K-562 leukemia) was > 100 µM. The TGI (SR leukemia) was > 100 µM, the TGI (PC-3 prostate) was 5.48 µM and the TGI (786-0 renal) was > 42 µM. For the same compound, the TGI (A549 NSCLC) was > 100 µM, the TGI (SNB-75 CNS) was > 100 µM and the TGI (HCT-116 colon) was > 100 µM. For the same compound, the TGI (NCI/ADR-RES ovarian) was > 100 µM, the TGI (OVCAR-5 ovarian) was > 100 µM and the TGI (MALME-3M melanoma) was > 100 µM. For the same compound, the TGI (SW-620 colon) was > 100 µM, the TGI (SK-MEL-5 melanoma) was > 41.9 µM and the TGI (MCF7 breast) was 19.4 µM. The TGI (CAKI-1 renal) was > 100 µM, the TGI (HOP-62 NSCLC) was > 100 µM and the TGI (SF-268 CNS) was > 100 µM. The TGI (COLO 205 colon) was 55.8 µM, the TGI (OVCAR-4 ovarian) was > 100 µM and the TGI (IGROV1 ovarian) was > 100 µM. The TGI (T-47D breast) was > 100 µM, the TGI (UO-31 renal) was > 50.7 µM and the TGI (NCI-H23 lung) was > 100 µM. For the same compound, the TGI (HCT-15 colon) was > 100 µM, the TGI (UACC-257 melanoma) was > 79.8 µM and the TGI (KM12 colon) was > 100 µM. It also gave a TGI (A498 renal) of 7.05 µM, a TGI (NCI-H522 lung) of 6.11 µM and a TGI (SN12C renal) of 33.9 µM. For the same compound, the TGI (U251 CNS) was > 100 µM, the TGI (M14 melanoma) was > 100 µM and the TGI (BT-549 breast) was > 79.9 µM. For the same compound, the TGI (NCI-H226 lung) was > 100 µM, the TGI (ACHN renal) was > 100 µM and the TGI (TK-10 renal) was > 100 µM. The TGI (OVCAR-8 ovarian) was > 61.6 µM, the TGI (DU-145 prostate) was > 100 µM and the TGI (EKVX NSCLC) was > 100 µM. The TGI (SF-295 CNS) was > 27.6 µM, the TGI (MOLT-4 leukemia) was > 39.5 µM and the TGI (HCC-2998 colon) was 7.5 µM. For the same compound, the TGI (SK-MEL-2 melanoma) was > 100 µM, the TGI (LOX IMVI melanoma) was 42.6 µM and the TGI (SK-MEL-28 melanoma) was > 100 µM.
